Active and inactive are the calls of the source. The rule behind the calls is not given here.
Experiments:
MDA-MB-231 [1] = assay: Growth inhibition of human MDA-MB-231 cells after 72 hrs by MTT assay; format: functional, cell-based; conditions: MDA-MB-231, 72 h
MCF7 = assay: Growth inhibition of human MCF7 cells after 72 hrs by MTT assay; format: functional, cell-based; conditions: MCF7, 72 h
MDA-MB-231 [2] = assay: Cell cycle arrest in human MDA-MB-231 cells assessed as accumulation at G2/M phase at 5 uM after 24 hrs by propidium iodide staining based flow cytometry (reference value: 18.5%); format: functional
MDA-MB-231 [3] = assay: Cell cycle arrest in human MDA-MB-231 cells assessed as accumulation at G1 phase at 5 uM after 48 hrs by propidium iodide staining based flow cytometry (reference value: 3.19%); format: functional
4T1 = assay: Growth inhibition of mouse 4T1 cells after 72 hrs by MTT assay; format: functional, cell-based; conditions: 4T1, 72 h
MDA-MB-231 [4] = assay: Induction of apoptosis in human MDA-MB-231 cells assessed as live cells at 5 uM after 24 hrs by Annexin V-FITC/propidium iodide staining based flow cytometry (reference value: 90.8%); format: functional
MDA-MB-231 [5] = assay: Induction of apoptosis in human MDA-MB-231 cells assessed as increase in Cyclin-B1 protein expression at 5 uM after 16 hrs by Western blot analysis; format: functional, cell-based
MDA-MB-231 [6] = assay: Induction of apoptosis in human MDA-MB-231 cells assessed as live cells at 5 uM after 48 hrs by Annexin V-FITC/propidium iodide staining based flow cytometry (reference value: 87.6%); format: functional
MDA-MB-231 [7] = assay: Growth inhibition of human MDA-MB-231 cells at 1 to 5 uM after 72 hrs by MTT assay; format: functional, cell-based
MDA-MB-231 [8] = assay: Cell cycle arrest in human MDA-MB-231 cells assessed as accumulation at G2/M phase at 5 uM after 48 hrs by propidium iodide staining based flow cytometry (reference value: 17.79%); format: functional
MDA-MB-231 [9] = assay: Inhibition of autophagy in human MDA-MB-231 cells assessed as LC3-2 accumulation at 5 uM after 16 hrs by DAPI staining based immunofluorescence assay; format: functional, cell-based
MDA-MB-231 [10] = assay: Cell cycle arrest in human MDA-MB-231 cells assessed as accumulation at S phase at 5 uM after 48 hrs by propidium iodide staining based flow cytometry (reference value: 31.71%); format: functional
MDA-MB-231 [11] = assay: Induction of apoptosis in human MDA-MB-231 cells assessed as early apoptotic cells at 5 uM after 48 hrs by Annexin V-FITC/propidium iodide staining based flow cytometry (reference value: 5.3%); format: functional
[12] = Growth inhibition of human WM35 cells after 72 hrs by MTT assay; format: functional; conditions: WM35, 72 h
MDA-MB-231 [13] = assay: Induction of apoptosis in human MDA-MB-231 cells assessed as necrotic cells at 5 uM after 24 hrs by Annexin V-FITC/propidium iodide staining based flow cytometry (reference value: 0.7%); format: functional
MDA-MB-231 [14] = assay: Induction of apoptosis in human MDA-MB-231 cells assessed as necrotic cells at 5 uM after 48 hrs by Annexin V-FITC/propidium iodide staining based flow cytometry (reference value: 0.7%); format: functional
MDA-MB-231 [15] = assay: Inhibition of autophagy in human MDA-MB-231 cells assessed as increase in p62 protein expression at 5 uM after 16 hrs by Western blot analysis; format: functional, cell-based
MDA-MB-231 [16] = assay: Cell cycle arrest in human MDA-MB-231 cells assessed as accumulation at G1 phase at 5 uM after 24 hrs by propidium iodide staining based flow cytometry (reference value: 47.9%); format: functional
MDA-MB-231 [17] = assay: Induction of apoptosis in human MDA-MB-231 cells assessed as increase in Bax protein expression at 5 uM after 16 hrs by Western blot analysis; format: functional, cell-based
[18] = molecular target: Serine/threonine-protein kinase mTOR (Homo sapiens) (UniProt P42345); assay: Inhibition of mTOR phosphorylation in human MDA-MB-231 cells at 5 uM after 16 hrs by Western blot analysis; format: cell-based
MDA-MB-231 [19] = assay: Induction of apoptosis in human MDA-MB-231 cells assessed as late apoptotic cells at 5 uM after 48 hrs by Annexin V-FITC/propidium iodide staining based flow cytometry (reference value: 6.5%); format: functional
MDA-MB-231 [20] = assay: Induction of apoptosis in human MDA-MB-231 cells assessed as early apoptotic cells at 5 uM after 24 hrs by Annexin V-FITC/propidium iodide staining based flow cytometry (reference value: 3.7%); format: functional
MDA-MB-231 [21] = assay: Cell cycle arrest in human MDA-MB-231 cells assessed as accumulation at S phase at 5 uM after 24 hrs by propidium iodide staining based flow cytometry (reference value: 29.76%); format: functional
MDA-MB-231 [22] = assay: Induction of apoptosis in human MDA-MB-231 cells assessed as decrease in Bcl2 protein expression at 5 uM after 16 hrs by Western blot analysis; format: functional, cell-based
MDA-MB-231 [23] = assay: Induction of apoptosis in human MDA-MB-231 cells assessed as late apoptotic cells at 5 uM after 24 hrs by Annexin V-FITC/propidium iodide staining based flow cytometry (reference value: 4.8%); format: functional
MDA-MB-231 [24] = assay: Induction of morphological changes in human MDA-MB-231 cells assessed as cell detachment at 5 uM after 24 hrs; format: functional, cell-based
K562 = assay: Growth inhibition of human K562 cells after 72 hrs by MTT assay; format: functional, cell-based; conditions: K562, 72 h
[25] = Growth inhibition of human WM9 cells after 72 hrs by MTT assay; format: functional; conditions: WM9, 72 h
HEL = assay: Growth inhibition of HEL cells after 72 hrs by MTT assay; format: functional, cell-based; conditions: Homo sapiens

**Q.** For `CN(C)c1ccccc1NC(=O)c1cc2c3ccccc3[nH]c2c2c1[nH]c1ccccc12`, which IC50 (MDA-MB-231 [1]) is on record?
**A.** 7.81 µM

**Q.** And the IC50 (MCF7)?
**A.** 10.8 µM

**Q.** With `CN(C)CCNC(=O)c1cc2c3ccccc3[nH]c2c2c1[nH]c1cc(Cl)ccc12` as the molecule, how does the IC50 (MDA-MB-231 [1]) read?
**A.** 4.51 µM

**Q.** What about the IC50 (MCF7) of the same molecule?
**A.** 8.03 µM

**Q.** Which results are given for `O=C(NCCN1CCCC1)c1cc2c3ccccc3[nH]c2c2c1[nH]c1ccccc12`?
**A.** IC50 (MDA-MB-231 [1]): 1.41 µM; IC50 (MCF7): 3.11 µM

**Q.** With `COc1cccc2c1C(=O)c1c(O)c3c(c(O)c1C2=O)C[C@@](O)(C(=O)CO)C[C@@H]3O[C@H]1C[C@H](N)[C@H](O)[C@H](C)O1` [DOXORUBICIN] as the molecule, how does the IC50 (MDA-MB-231 [1]) read?
**A.** 0.25 µM

**Q.** And the IC50 (MCF7)?
**A.** 0.42 µM

**Q.** Which IC50 (MDA-MB-231 [1]) does the source give for `O=C(NCCN1CCCCC1)c1cc2c3ccccc3[nH]c2c2c1[nH]c1ccccc12` here?
**A.** 1.72 µM

**Q.** What about the IC50 (MCF7) of the same molecule?
**A.** 3.27 µM

**Q.** For `O=C(NCCN1CCOCC1)c1cc2c3ccccc3[nH]c2c2c1[nH]c1ccccc12`, which IC50 (MDA-MB-231 [1]) is on record?
**A.** 4.4 µM

**Q.** What about the IC50 (MCF7) of the same molecule?
**A.** 7.76 µM

**Q.** For `O=C(NCc1cccnc1)c1cc2c3ccccc3[nH]c2c2c1[nH]c1ccccc12`, which IC50 (MDA-MB-231 [1]) is on record?
**A.** 6.01 µM

**Q.** What about the IC50 (MCF7) of the same molecule?
**A.** 9.8 µM

**Q.** Which IC50 (MDA-MB-231 [1]) does the source give for `CN(C)CCCNC(=O)c1cc2c3ccccc3[nH]c2c2c1[nH]c1ccccc12` here?
**A.** 4.48 µM

**Q.** What about the IC50 (MCF7) of the same molecule?
**A.** 3.7 µM

**Q.** Which results are given for `O=C(NCCNCCO)c1cc2c3ccccc3[nH]c2c2c1[nH]c1ccccc12`?
**A.** IC50 (MDA-MB-231 [1]): 2.05 µM; IC50 (MCF7): 4.85 µM

**Q.** For `COC(=O)c1cc2c3ccccc3[nH]c2c2c1[nH]c1cc(Cl)ccc12`, which IC50 (MDA-MB-231 [1]) is on record?
**A.** > 40 µM

**Q.** What about the IC50 (MCF7) of the same molecule?
**A.** > 40 µM

**Q.** With `COc1ccc2[nH]c3c(C(=O)NCCN4CCCC4)cc4c5ccccc5[nH]c4c3c2c1` as the molecule, how does the IC50 (MDA-MB-231 [1]) read?
**A.** 2.84 µM

**Q.** What about the IC50 (MCF7) of the same molecule?
**A.** 5.58 µM

**Q.** Which Activity (MDA-MB-231 [2]) does the source give for `COc1cc([C@@H]2c3cc4c(cc3[C@@H](O[C@@H]3O[C@@H]5CO[C@@H](C)O[C@H]5[C@H](O)[C@H]3O)[C@H]3COC(=O)[C@H]23)OCO4)cc(OC)c1O` [ETOPOSIDE] here?
**A.** 63.98%

**Q.** And the Activity (MDA-MB-231 [3])?
**A.** 8.57%

**Q.** What about the IC50 (4T1) of the same molecule?
**A.** > 10 µM

**Q.** And the Activity (MDA-MB-231 [4])?
**A.** 90.7%

**Q.** What about the IC50 (MDA-MB-231 [1]) of the same molecule?
**A.** > 10 µM

**Q.** What about the Activity (MDA-MB-231 [5]) of the same molecule?
**A.** Active

**Q.** What about the Activity (MDA-MB-231 [6]) of the same molecule?
**A.** 75.5%

**Q.** What about the “growth inhibition (GI)” value (MDA-MB-231 [7]) of the same molecule?
**A.** Active

**Q.** What about the Activity (MDA-MB-231 [8]) of the same molecule?
**A.** 70.43%

**Q.** And the inhibition (MDA-MB-231 [9])?
**A.** inactive

**Q.** What about the Activity (MDA-MB-231 [10]) of the same molecule?
**A.** 15.48%

**Q.** What about the Activity (MDA-MB-231 [11]) of the same molecule?
**A.** 5.5%

**Q.** What about the IC50 [12] of the same molecule?
**A.** 0.4 µM

**Q.** And the Activity (MDA-MB-231 [13])?
**A.** 0.7%

**Q.** What about the Activity (MDA-MB-231 [14]) of the same molecule?
**A.** 10.1%

**Q.** What about the inhibition (MDA-MB-231 [15]) of the same molecule?
**A.** inactive

**Q.** What about the Activity (MDA-MB-231 [16]) of the same molecule?
**A.** 7.59%

**Q.** What about the Activity (MDA-MB-231 [17]) of the same molecule?
**A.** Active

**Q.** And the inhibition [18]?
**A.** inactive

**Q.** What about the Activity (MDA-MB-231 [19]) of the same molecule?
**A.** 8.8%

**Q.** And the Activity (MDA-MB-231 [20])?
**A.** 4.6%

**Q.** And the Activity (MDA-MB-231 [21])?
**A.** 19.24%

**Q.** What about the Activity (MDA-MB-231 [22]) of the same molecule?
**A.** Active

**Q.** And the Activity (MDA-MB-231 [23])?
**A.** 4%

**Q.** And the Activity (MDA-MB-231 [24])?
**A.** Active

**Q.** What about the IC50 (K562) of the same molecule?
**A.** 9.23 µM

**Q.** What about the IC50 (MCF7) of the same molecule?
**A.** > 10 µM

**Q.** What about the IC50 [25] of the same molecule?
**A.** 1.75 µM

**Q.** What about the IC50 (HEL) of the same molecule?
**A.** 0.92 µM

**Q.** For `CN(C)CCN(C)C(=O)c1cc2c3ccccc3[nH]c2c2c1[nH]c1ccccc12`, which IC50 (MDA-MB-231 [1]) is on record?
**A.** 2.93 µM

**Q.** And the IC50 (MCF7)?
**A.** 6.3 µM

**Q.** Which results are given for `CN1CCN(CCNC(=O)c2cc3c4ccccc4[nH]c3c3c2[nH]c2ccccc23)CC1`?
**A.** IC50 (MDA-MB-231 [1]): 2.1 µM; IC50 (MCF7): 5.33 µM

**Q.** For `O=C(NCc1ccccn1)c1cc2c3ccccc3[nH]c2c2c1[nH]c1ccccc12`, which IC50 (MDA-MB-231 [1]) is on record?
**A.** 7.92 µM

**Q.** What about the IC50 (MCF7) of the same molecule?
**A.** 22.7 µM

Reference: ChEMBL document CHEMBL4382242, “Novel racemosin B derivatives as new therapeutic agents for aggressive breast cancer” (Bioorg Med Chem, 2018)
